Laboratory results published in paper PMC8228121, “Super-Cationic Peptide Dendrimers—Synthesis and Evaluation as Antimicrobial Agents” (Antibiotics, 2021).
In brackets after ≈: the same amount, converted by molar mass. Bridge positions count the residues as written; N and C are the ends. Side chains are listed from the residue outwards. Peptide text beside a SMILES is read from it. I, II: the chains in the order shown. * marks the point of attachment. Lauroyl = CCCCCCCCCCCC(=O)*; Hexanoyl = CCCCCC(=O)*

What was measured:
P. aeruginosa ATCC 27853 = experiment: microbe, parasite or virus in culture; format: cell-based, Pseudomonas aeruginosa; details: ATCC 27853
Procedure: (§1) Clinical isolates of CRE, MRSA and VRE were obtained from Lancet Laboratories, Durban, South Africa, with approval BE394/15 from the Biomedical Research Ethical Committee of the University of KwaZulu-Natal. Five reference strains of bacteria, namely Escherichia coli ATCC 25922, Pseudomonas aeruginosa ATCC 27853, Enterococcus faecium ATCC 35667, Staphylococcus aureus ATCC 29213 and Bacillus subtilis ATCC 6051 were supplied by the American Type Culture Collection (ATCC).
(§2) MIC values were determined by the broth microdilution method and the significance of the values obtained was interpreted following the guidelines of the Clinical and Laboratory Standards for Antimicrobial Susceptibility Testing.. The effect of human serum on the antimicrobial effect of the molecules tested was determined in a similar way to the MIC method used above in a solution of 50% human serum plus Mueller–Hinton broth.

B. subtilis ATCC 6051 = experiment: microbe, parasite or virus in culture; format: cell-based, Bacillus subtilis; details: ATCC 6051
Procedure: as §1, §2

in vitro = details: human
Procedure: (§3) Cell viability was evaluated using the colorimetric MTT assay [21]. Human hepatocarcinoma (HepG2) cells and human embryonic kidney 293 (HEK-293) cells used in the drug toxicity assays were obtained from Cellonex (Johannesburg, South Africa). Viable HepG2 and HEK293 cells (20,000 cells/well) were seeded into a 96-well microtiter plate (200 µL) and allowed to attach overnight. The cells were exposed to varying concentrations of the peptides for 24 h. After removal of the treatment medium, 20 µL of MTT salt solution (5 mg/mL in 0.1M phosphate buffer saline (PBS)) and 100 µL of complete cell culture medium (CCM) were added to each well. After a 4 h (37 °C) incubation, the MTT salt solution was discarded and 100 μL of dimethyl sulphoxide (DMSO) were added to each well (1 h, 37 °C). The optical density of the solubilized formazan product was measured at 570 nm (reference λ of 690 nm) using a Bio-tek μQuant spectrophotometer (Winooski, VT, USA). […] GraphPad Prism (V5) (La Jolla, CA, USA) was used to obtain the half maximum inhibitory concentration (IC50) for each compound.

E. coli ATCC 25822 = experiment: microbe, parasite or virus in culture; format: cell-based, Escherichia coli; details: ATCC 25822
Procedure: as §1, §2

E. faecium ATCC 35667 = experiment: microbe, parasite or virus in culture; format: cell-based, Enterococcus faecium; details: ATCC 35667
Procedure: as §1, §2

S. aureus ATCC 29213 = experiment: microbe, parasite or virus in culture; format: cell-based, Staphylococcus aureus; details: ATCC 29213
Procedure: as §1, §2

MTT cytotoxicity assay = format: cell-based, human; details: human, HepG2 cells, HepG2, 24 h exposure
Procedure: as §3

[1] = tested on: MRSA (methicillin-resistant S. aureus) isolates; experiment: microbe, parasite or virus in culture; format: cell-based
Procedure: as §1, §2

VRE, E. faecium isolates = experiment: microbe, parasite or virus in culture; format: cell-based
Procedure: as §1, §2

[2] = methicillin-resistant ) isolates

Compound | MBC (P. aeruginosa ATCC 27853) | MIC (P. aeruginosa ATCC 27853) | MBC (B. subtilis ATCC 6051) | MIC (B. subtilis ATCC 6051) | MBC (E. coli ATCC 25822) | MIC (E. coli ATCC 25822) | MBC (E. faecium ATCC 35667) | MIC (E. faecium ATCC 35667) | MBC (S. aureus ATCC 29213) | MIC (S. aureus ATCC 29213) | also measured
I: H-KLKK([Lys-Leu-Lys])KLKKKLKKLLKLL-NH2 / II: H-KLKK([Lys-Leu-Lys])KLKKKLK / III: H-KLKK([Lys-Leu-Lys])KLK / IV: H-KLKK([Lys-Leu-Lys])KLK (amide I:8-IV:C, I:12-II:C, II:8-III:C) [G3KLK-L2KL2, (KLK)8(KKLK)4(KKLK)2KLLKLL-NH2] | 16 µg/mL | 16 µg/mL | 8 µg/mL | 4 to 8 µg/mL | 32 µg/mL | 32 µg/mL | 64 µg/mL | 64 µg/mL | 16 µg/mL | 16 µg/mL | IC50 at 24 h (in vitro): 53.9 µg/mL; IC50 at 24 h (MTT cytotoxicity assay): 25.7 µg/mL
CN[C@H](CC(C)C)C(=O)N[C@H]1C(=O)N[C@@H](CC(N)=O)C(=O)N[C@H]2C(=O)N[C@H]3C(=O)N[C@H](C(=O)N[C@H](C(=O)O)c4cc(O)cc(O)c4-c4cc3ccc4O)[C@H](O)c3ccc(c(Cl)c3)Oc3cc2cc(c3O[C@@H]2O[C@H](CO)[C@@H](O)[C@H](O)[C@H]2O[C@H]2C[C@](C)(N)[C@H](O)[C@H](C)O2)Oc2ccc(cc2Cl)[C@H]1O [Van, vancomycin, reference compound] | – | – | – | – | – | – | – | – | – | – | MIC ([1]; MRSA isolate B11970): 1 µg/mL (≈ 0.69 µM); MIC ([1]; MRSA isolate B13178): 1 µg/mL (≈ 0.69 µM); MIC ([1]; MRSA isolate P10747): 1 µg/mL (≈ 0.69 µM); MIC ([1]; MRSA isolate P10781): 1 µg/mL (≈ 0.69 µM); MIC ([1]; MRSA isolate P11520): 1 µg/mL (≈ 0.69 µM); MIC ([1]; MRSA isolate S18155): 1 µg/mL (≈ 0.69 µM); MIC ([1]; MRSA isolate S37938): 1 µg/mL (≈ 0.69 µM); MIC ([1]; MRSA isolate T5683): 1 µg/mL (≈ 0.69 µM); MIC ([1]; Staphylococcus aureus): 1 µg/mL (≈ 0.69 µM); MIC ([1]; Staphylococcus aureus, MRSA): 1 µg/mL (≈ 0.69 µM); MIC (VRE, E. faecium isolates; Enterococcus faecium): > 128 µg/mL; MIC (VRE, E. faecium isolates; Enterococcus faecium, VRE): > 128 µg/mL; MIC (VRE, E. faecium isolates; VRE E. faecium isolate 938072607): >128 µg/mL; MIC (VRE, E. faecium isolates; VRE E. faecium isolate 938600912): >128 µg/mL; MIC (VRE, E. faecium isolates; VRE E. faecium isolate 938636470): >128 µg/mL; MIC (VRE, E. faecium isolates; VRE E. faecium isolate 938666613): >128 µg/mL; MIC (VRE, E. faecium isolates; VRE E. faecium isolate 945530665): >128 µg/mL; MIC (VRE, E. faecium isolates; VRE E. faecium isolate 951208931): >128 µg/mL; MIC (VRE, E. faecium isolates; VRE E. faecium isolate 951234856): >128 µg/mL; MIC (VRE, E. faecium isolates; VRE E. faecium isolate 951245262): >128 µg/mL
CC1(C)S[C@@H]2[C@H](NC(=O)[C@H](N)c3ccccc3)C(=O)N2[C@H]1C(=O)O [Amp, reference compound] | – | – | – | – | – | – | – | – | – | – | MIC ([1]; MRSA isolate 440260): >512 µg/mL; MIC ([1]; MRSA isolate B11970): >512 µg/mL; MIC ([1]; MRSA isolate B13178): >512 µg/mL; MIC ([1]; MRSA isolate P10747): >512 µg/mL; MIC ([1]; MRSA isolate P10781): >512 µg/mL; MIC ([1]; MRSA isolate P11520): 512 µg/mL (≈ 1470 µM); MIC ([1]; MRSA isolate S18155): >512 µg/mL; MIC ([1]; MRSA isolate S18970): >512 µg/mL; MIC ([1]; MRSA isolate S37938): >512 µg/mL; MIC ([1]; MRSA isolate T5683): >512 µg/mL
CC(C)C[C@H](NC(=O)[C@H](CC(C)C)NC(=O)[C@H](CCCNC(=N)N)NC(=O)[C@H](CC(C)C)NC(=O)[C@H](CC(C)C)NC(=O)[C@H](CCCCNC(=O)[C@H](CCCNC(=N)N)NC(=O)[C@H](CC(C)C)NC(=O)[C@@H](N)CCCNC(=N)N)NC(=O)[C@H](CCCNC(=N)N)NC(=O)[C@H](CC(C)C)NC(=O)[C@@H](N)CCCNC(=N)N)C(N)=O [G1RLR-L2RL2, (RLR)2KLLRLL-NH2] (H-RLRK([Arg-Leu-Arg])LLRLL-NH2) | 16 µg/mL (≈ 9.97 µM) | 16 µg/mL (≈ 9.97 µM) | 32 µg/mL (≈ 19.9 µM) | 32 µg/mL (≈ 19.9 µM) | 8 µg/mL (≈ 4.98 µM) | 8 µg/mL (≈ 4.98 µM) | 4 µg/mL (≈ 2.49 µM) | 4 µg/mL (≈ 2.49 µM) | 16 µg/mL (≈ 9.97 µM) | 16 µg/mL (≈ 9.97 µM) | IC50 at 24 h (in vitro): 153 µg/mL (≈ 95.3 µM); IC50 at 24 h (MTT cytotoxicity assay): 328 µg/mL (≈ 204 µM)
CCCCCCCCCCCC(=O)N[C@@H](CCCCN)C(=O)N[C@@H](CC(C)C)C(=O)N[C@@H](CCCCN)C(=O)NCCCC[C@H](NC(=O)[C@H](CCCCN)NC(=O)[C@H](CC(C)C)NC(=O)[C@H](CCCCN)NC(=O)CCCCCCCCCCC)C(=O)N[C@@H](CCCCN)C(=O)N[C@@H](CC(C)C)C(=O)N[C@@H](CCCCN)C(=O)NCCCC[C@H](NC(=O)[C@H](CCCCN)NC(=O)[C@H](CC(C)C)NC(=O)[C@H](CCCCN)NC(=O)[C@H](CCCCNC(=O)[C@H](CCCCN)NC(=O)[C@H](CC(C)C)NC(=O)[C@H](CCCCN)NC(=O)CCCCCCCCCCC)NC(=O)[C@H](CCCCN)NC(=O)[C@H](CC(C)C)NC(=O)[C@H](CCCCN)NC(=O)CCCCCCCCCCC)C(=O)N[C@@H](CC(C)C)C(=O)N[C@@H](CC(C)C)C(=O)N[C@@H](CCCCN)C(=O)N[C@@H](CC(C)C)C(=O)N[C@@H](CC(C)C)C(N)=O [Dd-G2KLK-L2KL2, (Dd-KLK)4(KKLK)2KLLKLL-NH2] (I: Lauroyl-KLKK([Lys-Leu-Lys-Lauroyl])KLKKLLKLL-NH2 / II: Lauroyl-KLKK([Lys-Leu-Lys-Lauroyl])KLK; amide I:8-II:C; N-terminus assumed) | – | >128 µg/mL | – | >128 µg/mL | – | >128 µg/mL | – | >128 µg/mL | – | >128 µg/mL | –
CC(=O)N[C@@H](CCCCN)C(=O)N[C@@H](CC(C)C)C(=O)N[C@@H](CCCCN)C(=O)NCCCC[C@H](NC(=O)[C@H](CCCCN)NC(=O)[C@H](CC(C)C)NC(=O)[C@H](CCCCN)NC(C)=O)C(=O)N[C@@H](CCCCN)C(=O)N[C@@H](CC(C)C)C(=O)N[C@@H](CCCCN)C(=O)NCCCC[C@H](NC(=O)[C@H](CCCCN)NC(=O)[C@H](CC(C)C)NC(=O)[C@H](CCCCN)NC(=O)[C@H](CCCCNC(=O)[C@H](CCCCN)NC(=O)[C@H](CC(C)C)NC(=O)[C@H](CCCCN)NC(C)=O)NC(=O)[C@H](CCCCN)NC(=O)[C@H](CC(C)C)NC(=O)[C@H](CCCCN)NC(C)=O)C(=O)N[C@@H](CC(C)C)C(=O)N[C@@H](CC(C)C)C(=O)N[C@@H](CCCCN)C(=O)N[C@@H](CC(C)C)C(=O)N[C@@H](CC(C)C)C(N)=O [Ac-G2KLK-L2KL2, (Ac-KLK)4(KKLK)2KLLKLL-NH2] (I: Ac-KLKK([Lys-Leu-Lys-Ac])KLKKLLKLL-NH2 / II: Ac-KLKK([Lys-Leu-Lys-Ac])KLK; amide I:8-II:C) | 16 µg/mL (≈ 4.75 µM) | 8 to 16 µg/mL | 16 µg/mL (≈ 4.75 µM) | 8 to 16 µg/mL | 16 µg/mL (≈ 4.75 µM) | 8 to 16 µg/mL | 128 µg/mL (≈ 38 µM) | 64 µg/mL (≈ 19 µM) | 128 µg/mL (≈ 38 µM) | 64 µg/mL (≈ 19 µM) | MIC [1, 2]: 128 µg/mL (≈ 38 µM)
CCCCCC(=O)N[C@@H](CCCCN)C(=O)N[C@@H](CC(C)C)C(=O)N[C@@H](CCCCN)C(=O)NCCCC[C@H](NC(=O)[C@H](CCCCN)NC(=O)[C@H](CC(C)C)NC(=O)[C@H](CCCCN)NC(=O)CCCCC)C(=O)N[C@@H](CCCCN)C(=O)N[C@@H](CC(C)C)C(=O)N[C@@H](CCCCN)C(=O)NCCCC[C@H](NC(=O)[C@H](CCCCN)NC(=O)[C@H](CC(C)C)NC(=O)[C@H](CCCCN)NC(=O)[C@H](CCCCNC(=O)[C@H](CCCCN)NC(=O)[C@H](CC(C)C)NC(=O)[C@H](CCCCN)NC(=O)CCCCC)NC(=O)[C@H](CCCCN)NC(=O)[C@H](CC(C)C)NC(=O)[C@H](CCCCN)NC(=O)CCCCC)C(=O)N[C@@H](CC(C)C)C(=O)N[C@@H](CC(C)C)C(=O)N[C@@H](CCCCN)C(=O)N[C@@H](CC(C)C)C(=O)N[C@@H](CC(C)C)C(N)=O [Hx-G2KLK-L2KL2, (Hx-KLK)4(KKLK)2KLLKLL-NH2] (I: Hexanoyl-KLKK([Lys-Leu-Lys-Hexanoyl])KLKKLLKLL-NH2 / II: Hexanoyl-KLKK([Lys-Leu-Lys-Hexanoyl])KLK; amide I:8-II:C; N-terminus assumed) | 64 µg/mL (≈ 17.8 µM) | 64 µg/mL (≈ 17.8 µM) | 128 µg/mL (≈ 35.6 µM) | 64 µg/mL (≈ 17.8 µM) | 64 µg/mL (≈ 17.8 µM) | 64 µg/mL (≈ 17.8 µM) | 64 µg/mL (≈ 17.8 µM) | 32 µg/mL (≈ 8.91 µM) | 128 µg/mL (≈ 35.6 µM) | 128 µg/mL (≈ 35.6 µM) | MIC [1, 2]: 64 µg/mL (≈ 17.8 µM)
